According to patent US11274101B2, “Heterocyclic compound” (Takeda Pharmaceutical Company Limited, priority 2017, dated 2022):

Legend:
[1] = target: T1, His-hMAGL (recombinant polyhistidine tagged human MAGL protein) (Homo sapiens, UniProt Q99685); test: Measurement of MAGL inhibitory activity (arachidonic acid production from 2-arachidonylglycerol, RapidFire-mass spectrometry); type: biochemical; conditions: test compound 10 μM; MAGL inhibitory rate
T1 construct: made in house; host or cells: E. coli BL21(DE3)
T1 sequence (Q99685 1-303): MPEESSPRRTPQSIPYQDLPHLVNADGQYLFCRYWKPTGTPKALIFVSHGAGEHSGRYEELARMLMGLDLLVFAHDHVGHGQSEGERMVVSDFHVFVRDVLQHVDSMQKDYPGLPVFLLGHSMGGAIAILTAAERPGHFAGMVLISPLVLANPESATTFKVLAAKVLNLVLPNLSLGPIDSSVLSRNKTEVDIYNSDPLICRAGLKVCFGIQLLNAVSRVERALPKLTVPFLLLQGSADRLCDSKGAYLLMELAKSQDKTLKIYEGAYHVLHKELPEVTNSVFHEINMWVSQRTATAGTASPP

[2] = tested on: intracerebral 2-AG and arachidonic acid; test: Measurement of intracerebral 2-AG and arachidonic acid concentrations after oral administration; type: in vivo, mouse (C57BL/6J); conditions: for 2-AG concentration / arachidonic acid concentration: male C57BL/6J mice, 1 mg/kg by gavage, cerebrum isolated 1 hour after administration; for 2-AG concentration: control 13.5; for arachidonic acid concentration: control 203.1; for intracerebral 2-AG concentration compared to control / intracerebral arachidonic acid concentration compared to control / migration into brain: oral administration to C57BL/6J mice
Method: As the mouse, 8-week-old male C57BL/6J mice (CLEA Japan, Inc.) were used (6 mice/group). Administration solutions were prepared by suspending the test compounds (compound 1 (compound of Example 16), compound 2 (compound of Example 18) and compound 3 (compound of Example 46)) in 0.5% methylcellulose solution (Wako Pure Chemical Industries, Ltd.). The dose of the test compound was prepared to be 1 mg/kg body weight/10 mL. The test compounds were administered by gavage at 1 mg/kg body weight. The cerebrum was isolated after the administration of the test compound (isolation time after the administration of the test compound is shown in Table 3), and the cerebrum hemisphere was extracted. The obtained cerebrum hemisphere was frozen on dry ice, and the frozen tissue weight was measured.
The cerebral tissue was homogenized with 4-fold (v/w) of isopropanol (IPA), and double diluted with IPA. To the diluted sample (200 μL) was added internal standard solution (5 μL) ([5,6,8,9,11,12,14,15-D8]-(5Z,8Z,11Z,14Z)-5,8,11,14-eicosatetraenoic acid (AA-d8, 0.5 nmol/mL IPA) and [5,6,8,9,11,12,14,15-D8]-(5Z,8Z,11Z,14Z)-5,8,11,14-eicosatetraenoyl-2-glycerol ester (2-AG-d8, 0.5 nmol/mL IPA)), and the mixture was centrifuged at 15000 rpm for 5 min. The supernatant was injected to liquid chromatography mass spectrometer for quantitative analysis.
For liquid chromatography, Shimadzu LC20A system (Shimadzu Corporation) was used. The separation was performed by gradient elution method with mobile phase A (10 mmol/L HCOONH4/HCOOH (100:0.2, v/v)) and mobile phase B (ethanol/IPA (3:2, v/v)) using Shim-pack XR-ODS (2.2 μm, 2.0×30 mm, Shimadzu Corporation) at column temperature of 50° C., at flow rate of 0.5 mL/min. The gradient conditions are as follows: 0-1 min, 1% B; 1-1.2 min, 1-55% B; 1.2-2.7 min, 55-75% B; 2.7-3.5 min, 75-99% B; 3.5-6 min, 99% B; 6-8 min, 1% B.
For mass spectrometer, API5000 (AB SCIEX) was used. The eluate from the liquid chromatography was directly ionized by turbospray ionization method, where (5Z,8Z,11Z,14Z)5,8,11,14-eicosatetraenoic acid (AA) and AA-ds were measured by negative ionization mode, and (5Z,8Z,11Z,14Z)5,8,11,14-eicosatetraenoyl-2-glycerol ester (2-AG) and 2-AG-d8 were measured by positive ionization mode.
A solution for calibration curve was prepared to the concentration of 2, 5, 10, 20, 50, 100, 200, 500, 1000 nmol/mL of acetonitrile. These solutions (10 μL) was mixed with 200 μL of IPA and 5 μL of internal standard solution, and the mixture was centrifuged at 15000 rpm for 5 min, and the supernatant was injected to liquid chromatography mass spectrometer. Liner regression with 1/x^2 weighting was used for the calibration curve fitting, and the quantitativity was confirmed by accuracy of 100±20% and R^2>0.99.

| Structure (SMILES) | inhibition at 10 µM [1] [%] | 2-AG concentration [2] [nmol/g] | arachidonic acid concentration [2] [nmol/g] | intracerebral 2-AG concentration compared to control [2] | intracerebral arachidonic acid concentration compared to control [2] | migration into brain [2] |
| --- | --- | --- | --- | --- | --- | --- |
| O=C1NC2(CO1)CN(C(=O)O[C@H]1C[C@@H](COc3ccc(F)c(F)c3F)C1)C2 [Example 16, cis-3-((2,3,4-trifluorophenoxy)methyl)cyclobutyl 6-oxo-7-oxa-2,5-diazaspiro[3.4]octane-2-carboxylate] | 100 | 82.3 | 119.8 | increased | decreased | migrated into brain |
| O=C1NC2(CO1)CN(C(=O)O[C@H]1C[C@@H](COc3c(F)cc(F)cc3F)C1)C2 [Example 18, cis-3-((2,4,6-trifluorophenoxy)methyl)cyclobutyl 6-oxo-7-oxa-2,5-diazaspiro[3.4]octane-2-carboxylate] | 102 | 128.7 | 84.3 | increased | decreased | migrated into brain |
| O=C1NC2(CO1)CN(C(=O)O[C@H]1C[C@@H](Oc3c(F)cc(F)cc3F)C1)C2 [Example 46, cis-3-(2,4,6-trifluorophenoxy)cyclobutyl 6-oxo-7-oxa-2,5-diazaspiro[3.4]octane-2-carboxylate] | 102 | 79.0 | 138.0 | increased | decreased | migrated into brain |
